The record followed here is patent US9969732B2, “Tetrahydroisoquinoline estrogen receptor modulators and uses thereof” (Genentech, Inc., priority 2016, dated 2018).

In the assay the target is T1, ER-alpha (WT) (Homo sapiens, UniProt P03372).
T1 construct: endogenous in cells; host or cells: MCF7 breast cancer cells
T1 sequence (P03372 1-595): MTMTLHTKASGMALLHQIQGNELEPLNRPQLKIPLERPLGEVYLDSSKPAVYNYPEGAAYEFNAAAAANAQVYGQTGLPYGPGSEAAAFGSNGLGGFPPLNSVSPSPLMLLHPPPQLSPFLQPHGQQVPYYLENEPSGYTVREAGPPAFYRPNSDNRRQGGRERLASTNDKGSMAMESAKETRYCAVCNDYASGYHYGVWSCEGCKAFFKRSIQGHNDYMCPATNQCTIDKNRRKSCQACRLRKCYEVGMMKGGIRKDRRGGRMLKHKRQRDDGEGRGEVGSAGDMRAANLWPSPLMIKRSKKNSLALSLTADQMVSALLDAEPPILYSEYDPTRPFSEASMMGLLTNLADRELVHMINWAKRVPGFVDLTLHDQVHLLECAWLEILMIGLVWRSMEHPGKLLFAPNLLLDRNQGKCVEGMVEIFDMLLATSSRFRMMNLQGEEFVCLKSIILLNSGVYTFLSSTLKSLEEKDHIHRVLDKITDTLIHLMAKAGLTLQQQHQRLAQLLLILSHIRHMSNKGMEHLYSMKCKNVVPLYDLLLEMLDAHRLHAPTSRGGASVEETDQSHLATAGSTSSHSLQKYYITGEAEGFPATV
Kind of assay: Breast Cancer Cell ERa High Content Fluorescence Imaging Degradation Assay (MCF7 HCS). In kind it is cell-based. As to conditions: MCF7 breast cancer cells, 4 hours incubation; for EC50: inflexion point of curve; for ERalpha (WT) MCF7 HCS (S inf): plateau of the maximal effect, DMSO and Fulvestrant define 0% and 100% changes in ESR1. As to the method:
MCF7 breast cancer cells were seeded on day 1 at a density of 10,000 cells per well in 384 well poly-lysine coated tissue culture plate (Greiner #T-3101-4), in 50 μL/well RPMI (phenol red free), 10% FBS (Charcoal stripped), containing L-glutamine. […] Compounds and controls were dispensed using a Labcyte Echo acoustic dispenser to dispense compounds with a predefined serial dilution (1.8×, 10 point, in duplicate) and appropriate backfill and control compounds (final total volume transferred was 417.5 nL and compound dispense volume ranges from 2.5 nL to 417.5 nL; 0.84% DMSO (v/v) final), ultimately producing a concentration range from 0.05 nM to 835 nM. Cell plates were incubated at 37° C., for 4 hours. Fixation and permeabilization were carried out using a Biotek EL406 plate washer and dispenser as follows. Cells were fixed by addition of 15 μL of 16% paraformaldehyde (Electron Microscopy Sciences #15710-S) directly to the 50 μL cell culture medium in each well using the peristaltic pump 5 μL cassette on a Biotek EL406 (final concentration of formaldehyde was 3.7% w/v). Samples were incubated 30 minutes. Well contents was aspirated and 50 μL/well of Phosphate Buffered Saline (PBS) containing 0.5% w/v bovine serum albumen, 0.5% v/v Triton X-100 (Antibody Dilution Buffer) was added to each well. Samples were incubated for 30 minutes. Well contents were aspirated and washed 3 times with 100 μL/well of PBS. Immunofluorescence staining of estrogen receptor alpha (ESR1) was carried out using a Biotek EL406 plate washer and dispenser as follows. The well supernatant was aspirated from the wells and 25 μL/well of anti-ESR1 mAb (F10) (Santa Cruz sc-8002) diluted 1:1000 in Antibody Dilution Buffer was dispensed. Samples were incubated for 2 hours at room temperature. Samples were washed 4 times with 100 μL/well of PBS. 25 μL (microliters)/well of secondary antibody solution (Alexafluor® 488 conjugate anti-mouse IgG (LifeTechnologies #A21202) diluted 1:1000 and Hoechst 33342 1 μg/mL diluted in Antibody Dilution Buffer) were dispensed into each well. Samples were incubated for 2 hours at room temperature. Samples were washed 3 times with 100 μL/well of PBS using a Biotek EL406. Quantitative fluorescence imaging of ESR1 was carried out using a Cellomics Arrayscan V® (Thermo). Fluorescence images of the samples (Channel 1: XF53 Hoechst (DNA stain); Channel 2: XF53 FITC (ESR1 stain)) were acquired using a Cellomics VTI Arrayscan using the Bioapplication “Compartmental Analysis” using the auto-exposure (based on DMSO control wells) setting “peak target percentile” set to 25% target saturation for both channels. Channel 1 (DNA stain) was used to define the nuclear region (Circ). Measurements of “Mean_CircAvgIntCh2”, which is the Alexafluor 488 fluorescence intensity (ESR1) within the nuclear region, was measured on a per cell basis and averaged over all the measured cells. Data analysis was carried out using Genedata Screener Software, with DMSO and 5 nM Fulvestrant treated samples being used to define the 0% and 100% changes in ESR1. The “Robust Fit” method was used to define the inflexion point of curve (EC50) and the plateau of the maximal effect (Sinf).

Molecules are shown by their SMILES.

`C[C@@H]1Cc2cc(C(C)(C)O)ccc2[C@@H](c2ccc(OCCN3CC(CF)C3)cc2)N1CC(F)(F)F` [Example 161, 2-((1R,3R)-1-(4-(2-(3-(Fluoromethyl)azetidin-1-yl)ethoxy)phenyl)-3-methyl-2-(2,2,2-trifluoroethyl)-1,2,3,4-tetrahydroisoquinolin-6-yl)propan-2-ol]: the EC50 was 11 nM and the “ERalpha (WT) MCF7 HCS (S inf)” value is reported as −82%.

With `Oc1ccc2c(c1)CCN(c1ccccc1)C2c1ccc(OCCN2CC(CF)C2)cc1` (stereo not drawn) [Example 101, 1-[4-[2-[3-(fluoromethyl)azetidin-1-yl]ethoxy]phenyl]-2-phenyl-3,4-dihydro-1H-isoquinolin-6-ol], the EC50 came out at 0.21 nM and the “ERalpha (WT) MCF7 HCS (S inf)” value was −99%.

As to `C[C@@H]1Cc2cc(O)ccc2[C@@H](c2ccc(OCCN3CC(CF)C3)cc2)N1CC(F)(F)F` (single isomer, unassigned) [Example 132], the EC50 was found to be 0.011 nM and the “ERalpha (WT) MCF7 HCS (S inf)” value is on record as −97%.

Regarding `Oc1ccc2c(c1)CCN(CC(F)(F)F)[C@H]2c1c(F)cc(OCCN2CC(CF)C2)cc1F` [Example 133, (1R)-1-[2,6-difluoro-4-[2-[3-(fluoromethyl)azetidin-1-yl]ethoxy]phenyl]-2-(2,2,2-trifluoroethyl)-3,4-dihydro-1H-isoquinolin-6-ol], the EC50 was found to be 17 nM and the “ERalpha (WT) MCF7 HCS (S inf)” value is −90%.

Take `C[C@@H]1Cc2ccccc2[C@@H](c2ccc(OCCN3CC(CF)C3)cc2)N1CC(F)(F)F` (single isomer, unassigned) [Example 156]: the EC50 was 0.85 nM and the “ERalpha (WT) MCF7 HCS (S inf)” value is given as −97%.

Consider `C[C@@H]1Cc2cc(O)ccc2[C@@H](c2ccc(OCCN3CC(CF)C3)cc2)N1S(C)(=O)=O` [Example 116, (1R,3R)-1-[4-[2-[3-(fluoromethyl)azetidin-1-yl]ethoxy]phenyl]-3-methyl-2-methylsulfonyl-3,4-dihydro-1H-isoquinolin-6-ol], for which the EC50 amounted to 0.3 nM and the “ERalpha (WT) MCF7 HCS (S inf)” value was −93%.

For `NC(=O)c1ccc2c(c1)CCN(CC(F)(F)F)[C@H]2c1ccc(OCCN2CC(CF)C2)cc1` [Example 141, (1S)-1-[4-[2-[3-(fluoromethyl)azetidin-1-yl]ethoxy]phenyl]-2-(2,2,2-trifluoroethyl)-3,4-dihydro-1H-isoquinoline-6-carboxamide], the EC50 is not below 100 nM.

As to `C[C@H]1Cc2cc(O)ccc2[C@@H](c2ccc(OCCN3CC(CF)C3)cc2)N1S(C)(=O)=O` [Example 115, (1R,3S)-1-[4-[2-[3-(fluoromethyl)azetidin-1-yl]ethoxy]phenyl]-3-methyl-2-methylsulfonyl-3,4-dihydro-1H-isoquinolin-6-ol], the EC50 is 61.4 nM and the “ERalpha (WT) MCF7 HCS (S inf)” value is recorded as −53%.

As for `FCC1CN(CCOc2ccc([C@H]3c4ccc(N5CCOCC5)cc4CCN3CC(F)(F)F)cc2)C1` [Example 147, 4-[(1S)-1-[4-[2-[3-(fluoromethyl)azetidin-1-yl]ethoxy]phenyl]-2-(2,2,2-trifluoroethyl)-3,4-dihydro-1H-isoquinolin-6-yl]morpholine], the EC50 was not below 100 nM.

As to `Oc1ccc2c(c1)CCN(CC(F)(F)F)[C@H]2c1ccc(OCCN2CC(CF)C2)cc1` (single isomer, unassigned) [Example 153], the EC50 was 0.54 nM and the “ERalpha (WT) MCF7 HCS (S inf)” value is given as −99%.

Take `C[C@@H]1Cc2cc(CO)ccc2[C@@H](c2ccc(NC3CN(CCCF)C3)cc2)N1CC(F)(F)F` (single isomer, unassigned) [Example 170]: a half-maximal effect (EC50) was put at 0.088 nM and the “ERalpha (WT) MCF7 HCS (S inf)” value is −100%.

Consider `C[C@@H]1CN(S(C)(=O)=O)[C@H](c2ccc(OCCN3CC(CF)C3)cc2)c2ccc(O)cc21` [Example 120, (1R,4S)-1-[4-[2-[3-(fluoromethyl)azetidin-1-yl]ethoxy]phenyl]-4-methyl-2-methylsulfonyl-3,4-dihydro-1H-isoquinolin-6-ol], for which the response was half-maximal at 25.9 nM (EC50) and the “ERalpha (WT) MCF7 HCS (S inf)” value is given as −60%.

In the case of `CC(C)(F)CN1CCc2cc(O)ccc2[C@@]1(c1ccc(OCCN2CC(CF)C2)cc1)C(F)F` (single isomer, unassigned) [Example 127], the EC50 is 22 nM and the “ERalpha (WT) MCF7 HCS (S inf)” value is reported as −85%.

In turn, `FCC1CN(CCOc2ccc([C@H]3c4ccc(-c5cc[nH]n5)cc4CCN3CC(F)(F)F)cc2)C1` [Example 151, (1S)-1-[4-[2-[3-(fluoromethyl)azetidin-1-yl]ethoxy]phenyl]-6-(1H-pyrazol-3-yl)-2-(2,2,2-trifluoroethyl)-3,4-dihydro-1H-isoquinoline] registered a half-maximal effective concentration (EC50) not below 100 nM.

Regarding `C[C@@]1(c2ccc(OCCN3CC(CF)C3)cc2)c2ccc(O)cc2CCN1CC(F)(F)F` [Example 113, (1R)-1-[4-[2-[3-(fluoromethyl)azetidin-1-yl]ethoxy]phenyl]-1-methyl-2-(2,2,2-trifluoroethyl)-3,4-dihydroisoquinolin-6-ol], the EC50 stood at 0.0608 nM and the “ERalpha (WT) MCF7 HCS (S inf)” value is given as −99%.

`CC(C)(F)C(=O)N1CCc2cc(O)ccc2[C@@H]1c1ccc(OCCN2CC(CF)C2)cc1` (single isomer, unassigned) [Example 103]: the EC50 was 100 nM.

Consider `C[C@@H]1Cc2cc(S(N)(=O)=O)ccc2[C@@H](c2ccc(OCCN3CC(CF)C3)cc2)N1CC(F)(F)CO` (single isomer, unassigned) [Example 173], for which the EC50 was 2.9 nM and the “ERalpha (WT) MCF7 HCS (S inf)” value was −98%.

Turning to `Oc1ccc2c(c1)CCN(CC(F)(F)F)[C@@H]2c1ccc(OCCN2CC(CF)C2)cc1` (single isomer, unassigned) [Example 154], the response was half-maximal at 0.024 nM (EC50) and the “ERalpha (WT) MCF7 HCS (S inf)” value is given as −99%.

For `C[C@@H]1Cc2c(ccc3[nH]ncc23)[C@@H](c2c(F)cc(OCCN3CC(CF)C3)cc2F)N1CC(C)(C)F` (single isomer, unassigned) [Example 123], the EC50 was determined as 0.06 nM and the “ERalpha (WT) MCF7 HCS (S inf)” value is reported as −98.8%.

`C[C@H]1Cc2cc(C(=O)O)ccc2[C@H](c2ccc(OCCN3CC(CF)C3)cc2)N1CC(F)(F)F` (single isomer, unassigned) [Example 163]: a half-maximal response (EC50) required 11 nM and the “ERalpha (WT) MCF7 HCS (S inf)” value is on record as −92%.

The compound `C[C@H]1Cc2cc(O)ccc2[C@H](c2ccc(OCCN3CC(CF)C3)cc2)N1S(C)(=O)=O` [Example 117, (1S,3S)-1-[4-[2-[3-(fluoromethyl)azetidin-1-yl]ethoxy]phenyl]-3-methyl-2-methylsulfonyl-3,4-dihydro-1H-isoquinolin-6-ol] came in with an EC50 not below 100 nM.

Consider `C[C@@H]1Cc2cc(CO)ccc2[C@@H](c2ccc(OCCN3CC(CF)C3)cc2)N1CC(F)(F)CO` [Example 172, 2,2-Difluoro-3-((1R,3R)-1-(4-(2-(3-(fluoromethyl)azetidin-1-yl)ethoxy)phenyl)-6-(hydroxymethyl)-3-methyl-3,4-dihydroisoquinolin-2(1H)-yl)propan-1-ol], for which the EC50 was determined as 0.14 nM and the “ERalpha (WT) MCF7 HCS (S inf)” value is recorded as −99%.

One may read the EC50 as the concentration that produces a half-maximal response.
